Source: US3984393A, “Aminoglycoside antibiotics” (The Upjohn Company, priority 1975, dated 1976)
≈ marks a conversion by molar mass, not a printed value.

Experiments:
B. cereus = test: standard disc plate assay, 12.5 mm paper discs (zone of inhibition), B. cereus; format: cell-based, Bacillus cereus; conditions: conclusion in words from the above results
Source text: (§1) The novel intermediates, disclosed herein, are useful to make novel aminoglycoside antibiotics. These novel aminoglycoside antibiotics are antibacterially active, and, thus, they can be used in various environments to eradicate or control sensitive bacteria. Following are in vitro antibacterial test results for representative compounds of the subject invention. The results were obtained with a standard disc plate assay using 12.5 mm paper discs.

B. subtilis = test: standard disc plate assay, 12.5 mm paper discs (zone of inhibition), B. subtilis; format: cell-based, Bacillus subtilis; conditions: conclusion in words from the above results
Source text: as §1

S. aureus UC 76 [1] = test: standard microplate test in BHI Agar (MIC), S. aureus UC 76; format: cell-based, Staphylococcus aureus
Protocol: (§2) Compounds were also tested in a standard microplate test in Brain Heart Infusion (BHI) Agar, at a concentration of 1 mg/ml. Incubation is at 37° and end points are read at 20 hours. Brain Heart Infusion Agar (supplied by Difco Laboratories, Detroit, Michigan, U.S.A.) has the following composition:
(§3) Compounds (7β), (7α) and (9) were tested again along with compounds (11) and (14β) against a neamine control using the same conditions as given above.

S. hemolyticus UC 152 = test: standard microplate test in BHI Agar (MIC), S. hemolyticus UC 152; format: cell-based, Streptococcus hemolyticus; conditions: Streptococcus pyogenes, UC152, 20 h; S. hemolyticus UC 152; retest table, group (7β), (14β), neamine control; read-out: Minimum Inhibitory Concentration
Protocol: as §2, §3

St. faecalis UC 694 = test: standard microplate test in BHI Agar (MIC), St. faecalis UC 694; format: cell-based; conditions: Enterococcus faecalis, UC694, 20 h, S. faecalis UC 694; retest table, group (7β), (14β), neamine control; read-out: Minimum Inhibitory Concentration
Protocol: as §2, §3

E. coli UC 45 = test: standard microplate test in BHI Agar (MIC), E. coli UC 45; format: cell-based; conditions: Escherichia coli, UC45, 20 h, E. coli UC 45; retest table, group (7β), (14β), neamine control; read-out: Minimum Inhibitory Concentration
Protocol: as §2, §3

P. vulgaris UC 93 [2] = test: standard microplate test in BHI Agar (MIC), P. vulgaris UC 93; format: cell-based; conditions: Proteus vulgaris, UC93, 20 h, P. vulgaris UC 93; retest table, group (7β), (14β), neamine control; read-out: Minimum Inhibitory Concentration
Protocol: as §2, §3

K. pneumoniae UC 58 = test: standard microplate test in BHI Agar (MIC), K. pneumoniae UC 58; format: cell-based; conditions: Klebsiella pneumoniae, UC58, 20 h; K. pneumoniae UC 58; retest table, group (7β), (14β), neamine control; read-out: Minimum Inhibitory Concentration
Protocol: as §2, §3

Ps. aeruginosa UC 95 [3] = test: standard microplate test in BHI Agar (MIC), Ps. aeruginosa UC 95; format: cell-based; conditions: Pseudomonas aeruginosa, UC95, 20 h, Ps. aeruginosa UC 95; retest table, group (7β), (14β), neamine control; read-out: Minimum Inhibitory Concentration
Protocol: as §2, §3

D. pneumoniae UC 41 = test: standard microplate test in BHI Agar (MIC), D. pneumoniae UC 41; format: cell-based; conditions: Streptococcus pneumoniae, UC41, 20 h, D. pneumoniae UC 41; retest table, group (7β), (14β), neamine control; read-out: Minimum Inhibitory Concentration
Protocol: as §2, §3

P. mirabilis A-63 = test: standard microplate test in BHI Agar (MIC), P. mirabilis A-63; format: cell-based; conditions: Proteus mirabilis, A63, 20 h; P. mirabilis A-63; retest table, group (7β), (14β), neamine control; read-out: Minimum Inhibitory Concentration
Protocol: as §2, §3

P. morgani UC 3186 = test: standard microplate test in BHI Agar (MIC), P. morgani UC 3186; format: cell-based; conditions: 20 h; P. morgani UC 3186; retest table, group (7β), (14β), neamine control; read-out: Minimum Inhibitory Concentration
Protocol: as §2, §3

P. rettgeri UC 339 = test: standard microplate test in BHI Agar (MIC), P. rettgeri UC 339; format: cell-based; conditions: Providencia rettgeri, UC339, 20 h; P. rettgeri UC 339; retest table, group (7β), (14β), neamine control; read-out: Minimum Inhibitory Concentration
Protocol: as §2, §3

S. marcescens UC 131 = test: standard microplate test in BHI Agar (MIC), S. marcescens UC 131; format: cell-based; conditions: Serratia marcescens, UC131, 20 h; S. marcescens UC 131; retest table, group (7β), (14β), neamine control; read-out: Minimum Inhibitory Concentration
Protocol: as §2, §3

S. flexneri UC 143 = test: standard microplate test in BHI Agar (MIC), S. flexneri UC 143; format: cell-based; conditions: Shigella flexneri, UC143, 20 h, retest table, group (7β), (14β), neamine control, read-out: Minimum Inhibitory Concentration
Protocol: as §2, §3

S. typhi TG-3 = test: standard microplate test in BHI Agar (MIC), S. typhi TG-3; format: cell-based; conditions: Salmonella enterica, 20 h, read-out: Minimum Inhibitory Concentration
Protocol: as §2, §3

B. cereus UC 3145 = test: agar diffusion (standard agar disc plate) assay, B. cereus UC 3145; format: cell-based, Bacillus cereus; parameters: unit: mm
Protocol: as §1
(§4) Compound (14β) was also tested against a series of bacteria on a standard agar disc plate assay, as described above.

B. subtilis UC 564 = test: agar diffusion (standard agar disc plate) assay, B. subtilis UC 564; format: cell-based, Bacillus subtilis; parameters: unit: mm
Protocol: as §1, §4

S. aureus UC 76 [4] = test: agar diffusion (standard agar disc plate) assay, S. aureus UC 76; format: cell-based, Staphylococcus aureus; parameters: unit not given here
Protocol: as §1, §4

P. vulgaris UC 93 [5] = test: agar diffusion (standard agar disc plate) assay, p. vulgaris UC 93; format: cell-based; parameters: unit: mm
Protocol: as §1, §4

Ps. aeruginosa UC 95 [6] = test: agar diffusion (standard agar disc plate) assay, Ps. aeruginosa UC 95; format: cell-based
Protocol: as §1, §4

E. coli UC 51 = test: agar diffusion (standard agar disc plate) assay, E. coli UC 51; format: cell-based, Escherichia coli; parameters: unit not given here
Protocol: as §1, §4

S. lutea UC 130 = test: agar diffusion (standard agar disc plate) assay, S. lutea UC 130; format: cell-based; parameters: unit: mm
Protocol: as §1, §4

K. pneumoniae UC 57 = test: agar diffusion (standard agar disc plate) assay, K. pneumoniae UC 57; format: cell-based; parameters: unit: mm
Protocol: as §1, §4

NC[C@H]1O[C@H](O[C@H]2[C@H](O)[C@@H](O)[C@H](N)C[C@@H]2N)[C@H](N)[C@@H](O[C@@H]2O[C@H](CO)[C@@H](O)[C@H]2O)[C@@H]1O [Compound (14β), 3'-O-(β-D-Ribofuranosyl)neamine]
active against Bacillus cereus (B. cereus): active
active against Bacillus subtilis (B. subtilis): active
MIC (S. aureus UC 76 [1]; Staphylococcus aureus, UC76, 20 h, S. aureus UC 76, retest table, group (7β), (14β), neamine control, read-out: Minimum Inhibitory Concentration): 1000 µg/mL (≈ 2200 µM)
active against Staphylococcus aureus (S. aureus UC 76 [1]; conclusion in words from the above results): active
MIC (S. hemolyticus UC 152): 1000 µg/mL (≈ 2200 µM)
MIC (St. faecalis UC 694): 1000 µg/mL (≈ 2200 µM)
MIC (E. coli UC 45): 1000 µg/mL (≈ 2200 µM)
MIC (P. vulgaris UC 93 [2]): 1000 µg/mL (≈ 2200 µM)
MIC (K. pneumoniae UC 58): 500 µg/mL (≈ 1100 µM)
MIC (Ps. aeruginosa UC 95 [3]): 1000 µg/mL (≈ 2200 µM)
MIC (D. pneumoniae UC 41): 1000 µg/mL (≈ 2200 µM)
MIC (P. mirabilis A-63): 1000 µg/mL (≈ 2200 µM)
MIC (P. morgani UC 3186): 1000 µg/mL (≈ 2200 µM)
MIC (P. rettgeri UC 339): 1000 µg/mL (≈ 2200 µM)
MIC (S. marcescens UC 131): 1000 µg/mL (≈ 2200 µM)
MIC (S. flexneri UC 143): 1000 µg/mL (≈ 2200 µM)
MIC (S. typhi TG-3): 1000 µg/mL (≈ 2200 µM)
Agar Diffusion Assay (B. cereus UC 3145; Full Strength): 25.5
Agar Diffusion Assay (B. cereus UC 3145; dilution 1 : 2): 24
Agar Diffusion Assay (B. cereus UC 3145; dilution 1 : 4): 21
Agar Diffusion Assay (B. cereus UC 3145; dilution 1 : 8): 18
Agar Diffusion Assay (B. subtilis UC 564; Full Strength): 37
Agar Diffusion Assay (B. subtilis UC 564; dilution 1 : 2): 35.5
Agar Diffusion Assay (B. subtilis UC 564; dilution 1 : 4): 33
Agar Diffusion Assay (B. subtilis UC 564; dilution 1 : 8): 30.5
Agar Diffusion Assay (S. aureus UC 76 [4]; Full Strength): 25
Agar Diffusion Assay (S. aureus UC 76 [4]; dilution 1 : 2): 23
Agar Diffusion Assay (S. aureus UC 76 [4]; dilution 1 : 4): 21
Agar Diffusion Assay (S. aureus UC 76 [4]; dilution 1 : 8): 17.5
Agar Diffusion Assay (P. vulgaris UC 93 [5]; Full Strength): 26
Agar Diffusion Assay (P. vulgaris UC 93 [5]; dilution 1 : 2): 22
Agar Diffusion Assay (P. vulgaris UC 93 [5]; dilution 1 : 4): 19.5
Agar Diffusion Assay (P. vulgaris UC 93 [5]; dilution 1 : 8): 16
Agar Diffusion Assay (Ps. aeruginosa UC 95 [6]; Full Strength): 20
Agar Diffusion Assay (Ps. aeruginosa UC 95 [6]; dilution 1 : 2): 17
Agar Diffusion Assay (Ps. aeruginosa UC 95 [6]; dilution 1 : 4): 14
Agar Diffusion Assay (E. coli UC 51; Full Strength): 27
Agar Diffusion Assay (E. coli UC 51; dilution 1 : 2): 24.5
Agar Diffusion Assay (E. coli UC 51; dilution 1 : 4): 22
Agar Diffusion Assay (E. coli UC 51; dilution 1 : 8): 18
Agar Diffusion Assay (S. lutea UC 130; Full strength): 25
Agar Diffusion Assay (S. lutea UC 130; dilution 1 : 2): 22.5
Agar Diffusion Assay (S. lutea UC 130; dilution 1 : 4): 19
Agar Diffusion Assay (S. lutea UC 130; dilution 1 : 8): 15
Agar Diffusion Assay (K. pneumoniae UC 57; Full strength): 31
Agar Diffusion Assay (K. pneumoniae UC 57; dilution 1 : 2): 29
Agar Diffusion Assay (K. pneumoniae UC 57; dilution 1 : 4): 27
Agar Diffusion Assay (K. pneumoniae UC 57; dilution 1 : 8): 23
